The test system of assay [1] is human leukemia cell line Jurkat. Briefly: In vitro tumor cell proliferation inhibition (MTT): Jurkat. Type of assay: cell-based. As to conditions: 72 hours. The text has this: (§1) The purpose of the experiment was to test the inhibition activity of the compounds of the invention for in vitro human tumor cell proliferation by the methyl thiazolyl tetrazolium (MTT) colorimetry.
(§2) Main reagents: RPMI-1640, fetal bovine serum, pancreatin, etc. were purchased from Gibco BRL Company (Invitrogen Corporation, USA) and IMDM medium that was purchased from American Type Culture Collection (ATCC). Methyl thiazolyl tetrazolium (MTT) and dimethyl sulfoxide (DMSO) were products from Sigma Company (USA). Pyrazolopyrimidine derivatives were composed by the inventor. During in vitro experiment, 100% DMSO was prepared into 10 mM storage solution, the solution was stored in a refrigerator at −20° C. for future use, and was diluted to the required concentration with complete culture solution before use.
(§3) Cell line and culture: Human leukemia cell line MV4-11, Jurkat, K562, human thyrophyma cell line TT, human gastric carcinoma cell line MKN-45, human malignant melanoma cell lines A375 and A875, human pancreatic carcinoma cell line panc-1, human cervical carcinoma cell line HELA, human colorectal carcinoma cell line HCT116, etc. were purchased from American type culture collection and were preserved by this laboratory. All leukemia cell lines (except MV4-11), gastric carcinoma cell lines and thyrophyma cell lines were cultured in RPMI-1640 complete medium containing 10% fetal bovine serum, 100 U/mL penicillin and 100 μg/mL streptomycin at 37° C. in 5% CO2. The remaining cell lines were cultured in DMEM complete medium containing 10% fetal bovine serum (containing 20% MV4-11 cell), 100 U/mL penicillin and 100 µg/mL streptomycin at 37° C. in 5% CO2.
(§4) Cell suspension with cell concentration of 1-2×10^4/mL was adjusted with the complete cell medium and inoculated in a 96-well plate, with each well filled with 200 μl cell suspension that was cultured overnight. On the next day, supernatant was sucked and abandoned (supernatant was sucked upon centrifugation of suspension cells), and then cells were processed with test compounds at gradient concentrations respectively. Meanwhile, a negative control group free from drug and a solvent control group with equal volume were set, and the DMSO concentration was 0.1%. Each dose group was provided with three wells and cultured at 37° C. in 5% CO2. After 72 hours, 20 μl 5 mg/mL MTT reagent was added to each well, and cultured for another 2 to 4 hours, the supernatant was abandoned; 150 μL DMSO was added to each well again, vibrated and mixed evenly for 15 minutes; the absorbance (A) values (proportional to living cell amount) were determined with a microplate reader (λ=570 nm) and averaged. […] Experiment was repeated for 3 times at least. Experimental data were expressed with means, data statistics were tested by t, and P<0.05 means that difference has a statistical significance. The cell proliferation inhibition effects of all compounds as follows are expressed by IC50 or inhibition rate.

In assay [2] the test system is human leukemia cell line K562. Briefly: In vitro tumor cell proliferation inhibition (MTT): K562. Type of assay: cell-based.
Excerpt: as §1, §2, §3, §4

The test system of assay [3] is human malignant melanoma cell line A375. Briefly: In vitro tumor cell proliferation inhibition (MTT): A375. The assay is classed as cell-based.
Excerpt: as §1, §2, §3, §4

Assay [4] concerns human cervical carcinoma cell line HELA. Briefly: In vitro tumor cell proliferation inhibition (MTT): HELA. Type of assay: cell-based. As to conditions: 72 hours.
Excerpt: as §1, §2, §3, §4

Assay [5] deals with c-KIT (Homo sapiens, UniProt P10721). Briefly: Kinase inhibition activity test, isotope labeling: c-KIT. Type of assay: biochemical. As to conditions: for Activity inhibition rate c-Kit (h) / inhibition at 10 µM: test compound at a concentration of 10 μM; for inhibition at 10 µM: read-out: Activity inhibition rate c-Kit (h); for IC50: ATP 200 μM, read-out: c-KIT IC50 value (inhibitory activity value). The procedure:
The purpose of this experiment was to test the inhibitory activity of the compound of the invention for in vitro kinase with the isotope labeling method (the γ phosphate group on ATP was labeled). In this experiment, the in vitro activity inhibition of such kinases as FLT3, VEGFR2, FLT1, FLT4, RET, c-RAF, B-RAF, c-KIT, PDGFα, PDGFβ, FGFR2, FGFR1, EphA2, EphB2, SRC, ABL, ALK and Met was tested respectively. Staurosporine was reference molecule (or referred to as positive control). The kinase inhibition activity of the test compound was expressed by half-inhibitory concentration (IC50) or the kinase activity inhibition rate of the test compound at a concentration of 10 μM. The IC50 value could be obtained by calculating the kinase activity inhibition rate of the test compound at different concentrations.
20 mM 3-(N-morpholinyl)propanesulfonic acid (MOPS); 1 mM ethylenediaminetetraacetic acid (EDTA), 0.01% Brij 35 (Brij-35), 5% glycerol, 0.1% mercaptoethanol, 1 mg/mL bovine serum albumin (BSA), 10 mM manganous dichloride solution (MnCl2), 0.1 mg/mL glutamic acid/tyrosine (4:1) polypeptide (poly(Glu, Tyr)4:1), 50 μM EAIYAAPFAKKK (substrate of FLT3), 0.33 mg/mL myelin basic protein (substrate of VEGFR2), 250 μM KKKSPGEYVNIEFG (substrate of FLT1(h)), 500 μM GGEEEEYFELVKKKK (substrate of FLT4(h)), 250 μM KKKSPGEYVNIEFG (substrate of RET), 0.66 mg/mL myelin basic protein (substrate of C-RAF), 250 μM GGMEDIYFEFMGGKKK (substrate of c-Kit), 250 μM GGMEDIYFEFMGGKKK (substrate of PDGFα), 250 μM KKKSPGEYVNIEFG (substrate of FGFR1), […] GGEEEEYFELVKKKK (substrate of SRC), 50 μM EAIYAAPFAKKK (substrate of ABL), 250 μM KKKSPGEYVNIEFG (substrate of ALK), 250 μM KKKSPGEYVNIEFG (substrate of Met(h)), 10 mM magnesium acetate and γ-^33 P-ATP solution, stop buffer (3% phosphate buffer), washing buffer (75 mM phosphate solution), methanol, Filtermat A membrane, FLT3, VEGFR2, FLT3, VEGFR2, FLT1, FLT4, RET, c-RAF, B-RAF, c-KIT, PDGFRα, PDGFRβ, FGFR2, FGFR1, EphA2, EphB2, SRC, ABL, ALK, Met and other kinases, and the test compounds.
Buffers (8 mM MOPS with pH value of 7.0, 0.2 mM EDTA and 10 mM MnCl2), (5-10 mU) kinases to be tested (FLT3, VEGFR2, FLT1, FLT4, RET, c-RAF, B-RAF, c-KIT, PDGFRα, PDGFRβ, FGFR2, FGFR1, EphA2, EphB2, SRC, ABL, ALK and Met), substrates of kinases to be tested (refer to experimental materials), 10 mM magnesium acetate and γ-^33 P-ATP solution, and test compounds at different concentrations were added to a reaction tube orderly. […] Reaction was terminated with 5 μL 3% phosphate buffer finally, and 10 μL reaction solution was titrated to the Filtermat A membrane; solution was washed for 3 times with 75 mM phosphate solution with each time lasting 5 minutes, and then washed once with methanol. Finally, the Filtermat A membrane was dried, and scintillation counting was performed on the membrane, with scintillation count reflecting the phosphorylation degree of the substrates, so that the activity inhibition of kinase could be characterized.

Assay [6] relates to human malignant melanoma cell line A875. Briefly: In vitro tumor cell proliferation inhibition (MTT): A875. Type of assay: cell-based.
Excerpt: as §1, §2, §3, §4

Some results are limits rather than exact numbers.

Chain of c-KIT (P10721 26-976): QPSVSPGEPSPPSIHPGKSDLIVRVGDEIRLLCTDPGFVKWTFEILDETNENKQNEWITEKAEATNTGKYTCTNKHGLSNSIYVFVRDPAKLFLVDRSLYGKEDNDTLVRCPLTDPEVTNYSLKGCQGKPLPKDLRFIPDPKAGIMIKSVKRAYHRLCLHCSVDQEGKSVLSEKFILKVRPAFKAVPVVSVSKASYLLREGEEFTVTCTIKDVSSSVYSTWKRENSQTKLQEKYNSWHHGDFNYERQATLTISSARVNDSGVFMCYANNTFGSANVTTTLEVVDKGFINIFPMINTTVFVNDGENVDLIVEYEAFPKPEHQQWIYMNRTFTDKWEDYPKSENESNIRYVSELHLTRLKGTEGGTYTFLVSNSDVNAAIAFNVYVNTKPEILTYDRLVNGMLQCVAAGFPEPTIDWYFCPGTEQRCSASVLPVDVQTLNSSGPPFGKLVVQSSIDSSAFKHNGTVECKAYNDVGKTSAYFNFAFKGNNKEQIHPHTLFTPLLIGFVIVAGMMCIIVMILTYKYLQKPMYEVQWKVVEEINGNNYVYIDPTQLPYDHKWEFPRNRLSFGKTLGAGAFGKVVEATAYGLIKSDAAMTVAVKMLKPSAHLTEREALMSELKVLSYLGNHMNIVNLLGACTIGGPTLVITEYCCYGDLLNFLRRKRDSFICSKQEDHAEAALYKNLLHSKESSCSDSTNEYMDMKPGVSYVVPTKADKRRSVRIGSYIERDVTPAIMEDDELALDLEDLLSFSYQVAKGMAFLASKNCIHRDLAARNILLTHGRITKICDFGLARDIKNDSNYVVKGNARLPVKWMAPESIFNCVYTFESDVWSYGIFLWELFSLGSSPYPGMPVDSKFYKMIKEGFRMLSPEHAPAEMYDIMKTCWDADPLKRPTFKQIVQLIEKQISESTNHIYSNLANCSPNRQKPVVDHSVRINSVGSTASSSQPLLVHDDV

Take `O=C(Nc1ccc(C(F)(F)F)cc1)Nc1ccc(Oc2ncnc3[nH]ncc23)c(F)c1` [4a-9, 1-(4-((1H-pyrazolopyrimidine-4-yl)oxy)-3-fluorophenyl)-3-(4-(trifluoromethyl)phenyl)urea]: the 50% inhibitory concentration (IC50) (in general, the midpoint of a concentration-inhibition curve) in assay [1] is less than 50 µM; in assay [2] (72 hours) it was 2.7 µM; in assay [3] (72 hours), less than 50 µM; in assay [4], 4.98 µM; in assay [6] (72 hours), less than 50 µM. The “Activity inhibition rate c-Kit (h)” value in assay [5] is given as 29%.
For the compound `O=C(Nc1ccc(Oc2ncnc3[nH]ncc23)c(F)c1)Nc1ccc(Cl)c(C(F)(F)F)c1` [4a-10, 1-(4-((1H-pyrazolopyrimidine-4-yl)oxy)-3-fluorophenyl)-3-(4-chloro-3-(trifluoromethyl)phenyl)urea], the IC50 is 9.93 µM in assay [1]; less than 50 µM in assay [2] (72 hours); less than 50 µM in assay [3] (72 hours); less than 50 µM in assay [4]; less than 50 µM in assay [6] (72 hours). Moreover, in assay [5], the “Activity inhibition rate c-Kit (h)” value came out at 49%.
As for `O=C(Nc1ccc(Oc2ncnc3[nH]ncc23)cc1)Nc1cc(C(F)(F)F)cc(C(F)(F)F)c1` [4a-12, 1-(4-((1H-pyrazolopyrimidine-4-yl)oxy)phenyl)-3-(3,5-bis(trifluoromethyl)phenyl)urea], the IC50 in assay [1] was less than 50 µM; in assay [2] (72 hours), 9.12 µM; in assay [3] (72 hours), less than 50 µM; in assay [4], less than 50 µM; in assay [6] (72 hours), less than 50 µM. For the same compound, the “Activity inhibition rate c-Kit (h)” value in assay [5] amounted to 58%.
For the compound `O=C(Nc1ccc(Oc2ncnc3[nH]ncc23)cc1)Nc1ccc(C(F)(F)F)cc1Cl` [4a-13], the IC50 in assay [1], in assay [2] (72 hours), in assay [3] (72 hours), in assay [4] and in assay [6] (72 hours) was less than 50 µM in each case. The “Activity inhibition rate c-Kit (h)” value in assay [5] came out at 85%.
On to `O=C(Nc1ccccc1)Nc1ccc(Oc2ncnc3[nH]ncc23)cc1` [4a-15, 1-(4-((1H-pyrazolopyrimidine-4-yl)oxy)phenyl)-3-phenylurea], for which the 50% inhibitory concentration (IC50) in assay [1], in assay [2] (72 hours), in assay [3] (72 hours), in assay [4] and in assay [6] (72 hours) was less than 50 µM throughout. Moreover, the “Activity inhibition rate c-Kit (h)” value in assay [5] came out at 66%.
Regarding `O=C(Nc1ccc(Oc2ncnc3[nH]ncc23)cc1)Nc1ccc(N2CCOCC2)cc1` [4a-16, 1-(4-((1H-pyrazolopyrimidine-4-yl)oxy)phenyl)-3-(4-morpholinylphenyl)urea], the half-maximal inhibitory concentration (IC50) in assay [1] (Homo sapiens, Jurkat) is less than 50 µM; in assay [2] (Homo sapiens, K562, 72 hours), less than 50 µM; in assay [3] (Homo sapiens, A-375, 72 hours), less than 50 µM; in assay [4] (Homo sapiens, HeLa) it was less than 50 µM; in assay [6] (Homo sapiens, A875, 72 hours), less than 50 µM. For the same compound, in assay [5], the inhibition (usually the change of the read-out against control, counted positive when it falls) at 10 µM stood at 77%.
As for `C[C@H](NC(=O)Nc1ccc(Oc2ncnc3[nH]ncc23)cc1)c1ccccc1` [4a-18, (S)-1-(4-((1H-pyrazolopyrimidine-4-yl)oxy)phenyl)-3-(1-phenethyl)urea], the IC50 in assay [1] was 3 to 10 µM; in assay [2] (72 hours) it was less than 50 µM; in assay [3] (72 hours) it was less than 50 µM; in assay [4] it was less than 50 µM; in assay [6] (72 hours) it was less than 50 µM. Besides, the “Activity inhibition rate c-Kit (h)” value in assay [5] is 100%.
On to `CC(C)(C)c1cc(NC(=O)Nc2ccc(Oc3ncnc4[nH]ncc34)cc2)on1` [4a-25], for which the half-maximal inhibitory concentration (IC50) in assay [1] is less than 50 µM; in assay [2] (72 hours) it was 3 to 10 µM; in assay [3] (72 hours), 3 to 10 µM; in assay [4], 3 to 10 µM; in assay [5], 0.911 µM; in assay [6] (72 hours) it was 3 to 10 µM. In assay [5], the “Activity inhibition rate c-Kit (h)” value is more than 90%.
As for `CC(C)(C)c1cc(NC(=O)Nc2ccc(Oc3ncnc4[nH]ncc34)cc2)no1` [4a-26], the half-inhibitory concentration (IC50) in assay [1] (Homo sapiens, Jurkat) was in the range of 3 to 10 µM; in assay [2] (Homo sapiens, K562, 72 hours), 3 to 10 µM; in assay [3] (Homo sapiens, A-375, 72 hours) it was 3 to 10 µM; in assay [4] (Homo sapiens, HeLa) it was 3 to 10 µM; in assay [6] (Homo sapiens, A875, 72 hours) it was 3 to 10 µM. Also, the inhibition at 10 µM in assay [5] was more than 90%.
Take `O=C(Nc1ccc(Oc2ncnc3[nH]ncc23)cc1)Nc1cc(C(F)(F)F)on1` [4a-28]: the half-inhibitory concentration (IC50) in assay [1] (Homo sapiens, Jurkat) is 3 to 10 µM; in assay [2] (Homo sapiens, K562, 72 hours), 3 to 10 µM; in assay [3] (Homo sapiens, A-375, 72 hours) it was less than 50 µM; in assay [4] (Homo sapiens, HeLa), less than 50 µM; in assay [6] (Homo sapiens, A875, 72 hours), less than 50 µM. Besides, the inhibition at 10 µM in assay [5] was more than 90%.
Take `CC(C)(C)c1cc(NC(=O)Nc2ccc(Oc3ncnc4[nH]ncc34)c(F)c2)no1` [4a-31]: the half-inhibitory concentration (IC50) is 6.1 µM in assay [1]; 3 to 10 µM in assay [2] (72 hours); 3 to 10 µM in assay [3] (72 hours); 3 to 10 µM in assay [4]; 0.087 µM in assay [5]; 3 to 10 µM in assay [6] (72 hours). For the same compound, the “Activity inhibition rate c-Kit (h)” value in assay [5] was more than 90%.
On to `O=C(Nc1cccc(Nc2ncnc3[nH]ncc23)c1)Nc1ccc(F)c(Cl)c1` [4b-1], for which the concentration for half-maximal inhibition (IC50) in assay [1] (Homo sapiens, Jurkat) is less than 50 µM; in assay [2] (Homo sapiens, K562, 72 hours) it was 3.45 µM; in assay [3] (Homo sapiens, A-375, 72 hours) it was less than 50 µM; in assay [4] (Homo sapiens, HeLa), less than 50 µM; in assay [6] (Homo sapiens, A875, 72 hours), less than 50 µM. Further, the inhibition at 10 µM in assay [5] was more than 30%.
Take `C[C@@H](NC(=O)Nc1ccc(Nc2ncnc3[nH]ncc23)cc1)c1ccccc1` [4b-2, (R)-1-(4-(1H-pyrazolopyrimidine-4-amido)phenyl)-3-(1-phenethyl)urea]: the IC50 is less than 50 µM in assay [1] (Homo sapiens, Jurkat); less than 50 µM in assay [2] (Homo sapiens, K562, 72 hours); less than 50 µM in assay [3] (Homo sapiens, A-375, 72 hours); less than 50 µM in assay [4] (Homo sapiens, HeLa); less than 50 µM in assay [6] (Homo sapiens, A875, 72 hours). For the same compound, the inhibition at 10 µM in assay [5] is more than 30%.

The values are drawn from US9828375B2, “4-position substituted pyrazolopyrimidine derivative, and use thereof in drug preparation” (Guangxi Wuzhou Pharmaceuticals (Group) Co., Ltd., priority 2012, dated 2017).
